These results are taken from paper PMC6891328, “Design, Synthesis and Biological Evaluation of Diosgenin-Amino Acid Derivatives with Dual Functions of Neuroprotection and Angiogenesis” (Molecules, 2019).

By viability is commonly meant the share of living cells, or the viability signal relative to a control. Usually EC50 stands for the concentration needed to bring the measured effect to its halfway point. The melting point is the temperature of the solid-liquid transition.

A short description of data set [1]: Biosafety (cytotoxicity) evaluation on H9c2 cells (MTT). It is filed as cell-based, rat. The following applies: rat, H9c2 cells; H9c2, 50 μM, MTT; read-out: cell viability. As for the experimental part: (§1) Compounds DG-13 and DG-15 dissolved in DMSO were added to each well with required concentrations (3.125, 6.25, 12.5, 25, 50 µM). Then the control group were treated with the same volume of medium. The non-administered group were not treated (no cells and no medium). Then the sterile plates were further incubated for 4 h, following MTT addition. After 4 h, supernatant liquor was removed into the waste and all of the wells were then placed into the fresh DMSO (0.15 mL). The absorbance was measured using BIORAD 550 spectrophotometer with the emission wavelengths of 490 nm. Each data was measured three times in parallel survival fraction of cells, calculated by the equation: [OD490 (Drug group) − OD490 (non-administered group)]/[OD490 (Control group) − OD490 (non-administered group)] ×100%.

The test system of data set [2] is H9c2 cells. The description is as above. It is filed as cell-based, rat. The following applies: for cytotoxicity (in words): H9c2, 3.125-50 μM. As for the experimental part: as §1
Data set [3] concerns SH-SY5Y cells. Particulars: for EC50: read-out: EC50 (neuroprotection), SH-SY5Y damaged by TBHP, 24 h, MTT, n = 3.
Data set [4] has as its system SH-SY5Y cells. As to the kind of experiment: Morphological observation of TBHP-damaged SH-SY5Y cells by Giemsa and DAPI staining. Particulars: TBHP-damaged SH-SY5Y, 10, 20, 40 μM. The class given is cell-based, human. As for the experimental part:
Afterwards, the medium containing compound DG-15 were added to the cultures for 24 h and the concentration range of the examined compounds was 10, 20 and 40 µM. Then 0.1 mL TBHP was used to damage cells and the plate was cultured for further 24 h. Removing the culture medium, washing twice with PBS and fixing cells with 2 mL methanol for 2 min and 1 mL paraformaldehyde for 15 min respectively and washed with fresh PBS again. Giemsa solution or DAPI was added to stain the fixed cells for 2 min and protected from light. Finally, the cells ware washed with water and were observed under inverted fluorescent microscope.

Data set [5] deals with chorioallantoic membrane. As to the kind of experiment: Angiogenesis in chorioallantoic membrane (CAM) model. The class given is in vivo, chicken. The following applies: new vessels inner diameter < 100 μm. As for the experimental part:
The CAM was examined as a predictive model for the angiogenic activity studies of compounds DG-15. The wide end of the fresh fertilized egg was placed upward in an incubator at 37 °C with a relative humidity of 60%. All the eggs were turned every two hours to prevent from sticking to each other. Compound DG-15 was dissolved with acetone at a concentration of 1 mg/mL and 4 mg/mL and then 5 µL solution was transferred to gelatin sponge using a pipette respectively. The sham treatment group was added to the same volume of saline. Disinfected with UV lamp for 30 min. After 7 days, the broader said of eggs was disinfected with 70% alcohol, then a 30-mm-diameter window was carefully opened in the shell to reduce the chamber pressure before removed the upper shell membrane with tweezers. In addition, the non-fertilized oocytes and unhealthy developed embryos were thrown away. Then the gelatin sponge was embedded into the allantoic membrane and the window was sealed with adhesive tape, with the eggs being returned to the incubator. The eggs were then incubated 3 days after administration, fixed with methanol-acetone (1:1) for 10 min and repeated four times. […] The vascular growth was analyzed with a dissecting microscope and counted by software of Image Professional Plus 5.0 software (Media Cybernetics, Inc, MD, USA)

Structures are written as SMILES. Values joined by “and” are separate entries in the source; they are usually repeats but may differ in a detail not shown here. Identical values can stand only once. Like-named read-outs stand apart in the source and are kept apart here.

In the case of `C[C@@H]1CC[C@@]2(OC1)O[C@H]1C[C@H]3[C@@H]4CC=C5C[C@@H](O)CC[C@]5(C)[C@H]4CC[C@]3(C)[C@H]1[C@@H]2C` [DG, diosgenin], the viability at 50 µM in data set [1] is around 60%. Further, the “cytotoxicity (in words)” value in data set [2] (MTT) is “toxic under all treated groups”. The results for the EC50 in data set [3] and in data set [3] (listed as diosgenin) were above 50 µM and above 40 µM, respectively.

Regarding `CC1CCC2(OC1)OC1CC3C4CC=C5CC(OC(=O)C(N)Cc6ccccc6)CCC5(C)C4CCC3(C)C1C2C` [DG-16, 3β-(L-phenylalanine)-diosgenin], the EC50 in data set [3] is 11.4 µM and 11.2 µM.

Compound `CC1CCC2(OC1)OC1CC3C4CC=C5CC(OC(=O)C6CCCN6C(=O)OC(C)(C)C)CCC5(C)C4CCC3(C)C1C2C` [DG-4, 3β-(N-Boc-L-proline)-diosgenin] displayed a melting point of 183.4 °C. Moreover, the EC50 in data set [3] is 23.8 ± 6.83 µM.

`CC1=NN(c2ccccc2)C(=O)C1` [Edaravone, edaravone, reference compound]: the EC50 in data set [3] was determined as 21.6 ± 3.04 µM.

Compound `CC1CCC2(OC1)OC1CC3C4CC=C5CC(OC(=O)C(NC(=O)OCc6ccccc6)C(C)C)CCC5(C)C4CCC3(C)C1C2C` [DG-8, 3β-(N-Cbz-L-valine)-diosgenin] returned a melting point of 158.4 °C. In data set [3], the EC50 turned out to be 38.1 ± 6.68 µM.

Consider `CC1CCC2(OC1)OC1CC3C4CC=C5CC(OC(=O)C(CCCCNC(=O)OCc6ccccc6)NC(=O)OCc6ccccc6)CCC5(C)C4CCC3(C)C1C2C` [DG-9, 3β-(N-Cbz-L-lysine)-diosgenin], for which the melting point worked out at 135.8 °C. Besides, in data set [3], the EC50 came to 36.2 ± 8.67 µM.

Compound `CNCC(=O)OC1CCC2(C)C(=CCC3C2CCC2(C)C3CC3OC4(CCC(C)CO4)C(C)C32)C1` (stereo not drawn) [DG-12, 3β-(sarcosine)-diosgenin] displayed a melting point of 176 °C. For the same compound, the EC50 in data set [3] was above 50 µM.

The compound `CC1CCC2(OC1)OC1CC3C4CC=C5CC(OC(=O)C6CCCN6)CCC5(C)C4CCC3(C)C1C2C` [DG-13, 3β-(L-proline)-diosgenin] yielded a survival rate in data set [2] (H9c2, 25 μM, MTT) of 12%. Further, the “cytotoxicity (in words)” value in data set [2] (MTT) was “significantly enhanced compared with diosgenin”. Also, the EC50 in data set [3] is 7.22 ± 1.58 µM.

`CC1CCC2(OC1)OC1CC3C4CC=C5CC(OC(=O)C(C)NC(=O)OC(C)(C)C)CCC5(C)C4CCC3(C)C1C2C` [DG-2, 3β-(N-Boc-L-alanine)-diosgenin] showed a melting point of 218.9 °C.

`CC(C)CC(NC(=O)OC(C)(C)C)C(=O)OC1CCC2(C)C(=CCC3C2CCC2(C)C3CC3OC4(CCC(C)CO4)C(C)C32)C1` [DG-5, 3β-(N-Boc-L-leucine)-diosgenin]: the EC50 in data set [3] was 9.51 ± 1.79 µM.

In turn, `CC1CCC2(OC1)OC1CC3C4CC=C5CC(OC(=O)C(N)C(C)C)CCC5(C)C4CCC3(C)C1C2C` [DG-17, 3β-(L-valine)-diosgenin] displayed a melting point of 139.1 °C. Besides, the EC50 in data set [3] is above 50 µM.

Take `CC1CCC2(OC1)OC1CC3C4CC=C5CC(OC(=O)CNC(=O)OC(C)(C)C)CCC5(C)C4CCC3(C)C1C2C` (stereo not drawn) [DG-1, 3β-(N-Boc-glycine)-diosgenin]: the melting point was found to be 218.7 °C. Moreover, the EC50 in data set [3] was above 50 µM.

`CC(C)CC(N)C(=O)OC1CCC2(C)C(=CCC3C2CCC2(C)C3CC3OC4(CCC(C)CO4)C(C)C32)C1` [DG-14, 3β-(L-leucine)-diosgenin] registered a melting point of 154.4 °C. The EC50 in data set [3] turned out to be 32.6 ± 0.97 µM.

As to `CC1CCC2(OC1)OC1CC3C4CC=C5CC(OC(=O)C(Cc6ccccc6)NC(=O)OC(C)(C)C)CCC5(C)C4CCC3(C)C1C2C` [DG-7, 3β-(N-Boc-L-phenylalanine)-diosgenin], the melting point worked out at 163.4 °C. Besides, the EC50 in data set [3] is above 50 µM.

For `CCC(C)C(N)C(=O)OC1CCC2(C)C(=CCC3C2CCC2(C)C3CC3OC4(CCC(C)CO4)C(C)C32)C1` [DG-15, 3β-(L-isoleucine)-diosgenin], the melting point stood at 147.1 °C. The “cytotoxicity (in words)” value in data set [2] (MTT) is reported as “no cytotoxicity”. For the same compound, the “inhibitory effect on cells” value in data set [2] (H9c2, concentrations below 25 μM) is given as “no inhibitory effect”. In data set [4], the “morphological change, DAPI staining” value is given as “the number of SH-SY5Y cells was increasingly larger” and the “morphological change, Giemsa staining” value is on record as “the typical signs for apoptosis were reduced”. The “increase of number of blood vessels” value in data set [5] (1 mg/mL on gelatin sponge) was 60.61%. Also, in data set [5] (4 mg/mL on gelatin sponge), the “increase of number of blood vessels” value stood at 80.30%. For the same compound, in data set [3], the EC50 is 6.86 ± 0.69 µM.

`CC1CCC2(OC1)OC1CC3C4CC=C5CC(OC(=O)C(C)N)CCC5(C)C4CCC3(C)C1C2C` [DG-11, 3β-(L-alanine)-diosgenin] yielded a melting point of 219.1 °C. In data set [3], the EC50 was above 50 µM.

`CC1CCC2(OC1)OC1CC3C4CC=C5CC(OC(=O)CN)CCC5(C)C4CCC3(C)C1C2C` (stereo not drawn) [DG-10, 3β-(glycine)-diosgenin]: the melting point is 110.8 °C. Besides, the EC50 in data set [3] was above 50 µM.

On to `CCC(C)C(NC(=O)OC(C)(C)C)C(=O)OC1CCC2(C)C(=CCC3C2CCC2(C)C3CC3OC4(CCC(C)CO4)C(C)C32)C1` [DG-6, 3β-(N-Boc-L-isoleucine)-diosgenin], for which, in data set [3], the half-maximal effective concentration (EC50) amounted to 18.5 ± 1.87 µM.

`CC1CCC2(OC1)OC1CC3C4CC=C5CC(OC(=O)C(N)CCCCN)CCC5(C)C4CCC3(C)C1C2C` [DG-18, 3β-(L-lysine)-diosgenin] registered a melting point of 189.4 °C. In addition, the “cytotoxicity seen in neuroprotective activity evaluation (in words)” value in data set [3] (SH-SY5Y, compared with compounds with neutral amino acids) is “higher cytotoxicity”. Besides, the EC50 in data set [3] is above 50 µM.

In the case of `CC1CCC2(OC1)OC1CC3C4CC=C5CC(OC(=O)CN(C)C(=O)OC(C)(C)C)CCC5(C)C4CCC3(C)C1C2C` (stereo not drawn) [DG-3, 3β-(N-Boc-sarcosine)-diosgenin], the EC50 in data set [3] amounted to 15.2 ± 0.96 µM.
